Test results taken from US12678478B2, “Compositions and methods for treating dysregulated wound healing” (The Regents of the University of California, priority 2020, dated 2026).

Experiments:
[1] = system: Col5a1CKO cardiac fibroblasts; assay: Myofibroblast gene expression (qPCR) in Col5a1CKO cardiac fibroblasts generated ex vivo with or without cilengitide; type: cell-based, mouse; details: Cilengitide 1 μM, 7 days, Col5a1 floxed cardiac fibroblasts infected with lentiviral Cre, versus no cilengitide (FIG. 8F)
Protocol: For qPCR, and RNA-seq, the injured and uninjured regions of the heart were harvested at different time points following injury, RNA extracted using RNeasy Mini kit (Qiagen). cDNAs were generated using iScript cDNA Synthesis Kit (BioRad) and qPCR performed.
Cardiac fibroblasts were isolated from Col5a1 fl/fl mouse as described above. These cells were infected with Lentivirus-Large T antigen in presence of polybrene (8 μg/ml) for 16 h, treated with puromycin (2 μg/ml) for selection of infected cells. Immortalized cells were cultured with 10% FBS containing high glucose DMEM. Cells so immortalized were then infected with Lentivirus-Cre recombinase or lentivirus-GFP to generate Col5a1 deficient cardiac fibroblast or control cardiac fibroblast, respectively. These cells were cultured for 6-7 days and used for each experiment to determine effects on gene expression. To determine an effect of Cilengitide on these cells, Col5a1fl/fl cardiac fibroblasts were pretreated with Cilengitide (1 μM) in 10% FBS containing high glucose DMEM for 1 h before infection with lentivirus-Cre recombinase or lentivirus-GFP. […]
Given the upregulation of αvβ3 and αvβ5 integrins in Col5a1CKO cardiac fibroblasts, whether there was a causal relationship between these differentially expressed integrins and myofibroblast differentiation was determined. […]

[2] = system: control (Cre(−)Col5a1fl/fl) littermate animals; assay: Acute ischemic cardiac injury (LAD ligation) in control littermates treated with cilengitide; type: in vivo, mouse
Protocol: All animal studies were approved by the Animal Research Committee, University of California, Los Angeles, Myocardial infarction was performed by ligating the left anterior descending (LAD) coronary artery following open thoracotomy. Briefly, Mice were anesthetized with ketamine (80 mg/kg)/xylazine (20 mg/kg) by intraperitoneal injection. Respiration was provided by mechanical ventilation with 95% 02 (tidal volume 0.5 ml, 130 breaths/min). The LAD coronary artery was ligated intramurally 2 mm from its origin with a 9-0 proline suture.
For experiments related to use of cilengitide, 20 mg/kg of Cilengitide diluted in PBS was administered by intraperitoneal injection every day until harvest and PBS was used as vehicle as a control.
For echocardiography, animals were continuously anesthetized with 1.5% isoflurane and 95% O2, Vevo2100 imaging system and a […] scan head (Toronto, Canada) were used to acquire short/long axis B-mode and M-mode images. Long axis B-mode view was used for analyzing peak longitudinal strain rate. […]
For Masson Trichrome staining, sections were stained using Masson Trichrome Stain kit (Thermo Scientific, 87019). Images were taken in heart sections from apex, mid-ventricle, and close to suture and fibrotic area analyzed from apex to mid-ventricle. Scar tissue area was calculated as the fraction of left ventricular surface area occupied by the scar tissue. […]

Col5a1CKO animals = assay: Acute ischemic cardiac injury (LAD ligation) in Col5a1CKO animals treated with cilengitide; type: in vivo, mouse

Question: For CC(C)[C@H]1C(=O)N[C@@H](CCCN=C(N)N)C(=O)NCC(=O)N[C@@H](CC(=O)O)C(=O)N[C@H](Cc2ccccc2)C(=O)N1C [cilengitide, Cilengitide], which “expression of myofibroblast markers” value [1] is on record?
Answer: significantly reduced

Question: And the “post injury cardiac function (EF, FS by echocardiography)” value ([2]; 20 mg/kg daily for 14 days from day of injury, control littermates (FIG. 8H))?
Answer: did not affect

Question: What about the scar size ([2]; 20 mg/kg daily for 14 days, control animals, 2 weeks post injury (FIGS. 8J, 8K)) of the same compound?
Answer: did not affect

Question: And the “fraction of animals exhibiting severe fibrosis” value (Col5a1CKO animals; 20 mg/kg daily for 14 days, 2 weeks post injury, severe = >50% fibrotic area (FIG. 8L))?
Answer: 22%

Question: And the “degree of myocyte hypertrophy in the border zone (heart weight/body weight ratios and histological analysis)” value (Col5a1CKO animals; 20 mg/kg daily for 14 days, 2 weeks post injury, versus vehicle-injected group, p<0.05 (FIGS. 8N, 8O))?
Answer: substantially reduced

Question: And the “Scar size expressed as a fraction of left ventricular surface area” value (Col5a1CKO animals; 20 mg/kg daily for 14 days, Masson trichrome, 2 weeks post injury, mean±S.D., n=9, p<0.05 versus Col5a1CKO+vehicle (FIGS. 8J, 8K))?
Answer: 41.2±16.1%

Question: What about the “post injury cardiac function (EF, FS by echocardiography)” value (Col5a1CKO animals; 20 mg/kg daily intraperitoneal for 14 days from day of injury, 1 and 2 weeks after injury, versus vehicle-injected Col5a1CKO (FIGS. 8H, 8I)) of the same compound?
Answer: complete rescue of function

Question: And the “number of myofibroblasts (αSMA+vimentin+cells/vimentin+cells) in scars” value (Col5a1CKO animals; 2 weeks of cilengitide injection, 20 mg/kg daily, versus vehicle-injected group, p<0.05 (FIG. 8M))?
Answer: significantly reduced
